The values below come from patent US10988523B2, “Modified lipidated Relaxin B chain peptides and their therapeutic use” (Sanofi, priority 2018, dated 2021).

Series [1] concerns the target T1, RXFP1 (Homo sapiens, UniProt Q9HBX9).
T1 construct: OVCAR5 cells expressing endogenous RXFP1; endogenous in cells; host or cells: OVCAR5 cells
T1 sequence (Q9HBX9 1-757): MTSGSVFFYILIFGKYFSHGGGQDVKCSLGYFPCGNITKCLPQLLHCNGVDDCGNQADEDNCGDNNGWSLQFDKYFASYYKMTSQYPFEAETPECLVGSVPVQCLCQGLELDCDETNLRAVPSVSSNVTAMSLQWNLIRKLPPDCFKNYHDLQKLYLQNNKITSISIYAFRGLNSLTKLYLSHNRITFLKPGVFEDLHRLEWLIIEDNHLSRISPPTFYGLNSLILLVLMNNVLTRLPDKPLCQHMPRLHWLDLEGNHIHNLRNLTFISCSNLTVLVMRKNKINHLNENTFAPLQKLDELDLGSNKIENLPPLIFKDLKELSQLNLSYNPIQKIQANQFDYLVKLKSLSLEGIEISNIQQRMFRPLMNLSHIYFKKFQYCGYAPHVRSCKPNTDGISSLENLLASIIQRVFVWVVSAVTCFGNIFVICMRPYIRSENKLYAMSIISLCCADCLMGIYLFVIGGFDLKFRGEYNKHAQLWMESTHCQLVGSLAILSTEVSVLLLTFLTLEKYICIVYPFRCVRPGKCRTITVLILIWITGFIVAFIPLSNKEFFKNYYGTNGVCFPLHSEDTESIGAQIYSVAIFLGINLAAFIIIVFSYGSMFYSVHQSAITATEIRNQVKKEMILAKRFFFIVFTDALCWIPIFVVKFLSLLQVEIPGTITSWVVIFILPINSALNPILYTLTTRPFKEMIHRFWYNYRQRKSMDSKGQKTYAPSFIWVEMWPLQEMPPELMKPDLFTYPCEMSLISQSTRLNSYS
Briefly: OVCAR5 cAMP assay (HTRF), RXFP1 agonist activity. Particulars: for EC50: OVCAR5 cells, cAMP HTRF, read-out: EC50 (nM), OVCAR 5 cells (cAMP); for Emax: OVCAR-5, maximal cAMP relative to H2-relaxin maximum (100%), read-out: EMax, OVCAR 5 cells (cAMP). The class given is cell-based. In outline:
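OVCAR5 cells (endogenous RXFP1) pretreated 40 min at 37° C with 1 mM IBMX, then exposed to peptides in serum-free medium for 30 min at 37° C. Lysate cAMP read by HTRF; EC50 from variable-slope sigmoidal fit; Emax as % of H2-relaxin maximal cAMP in same run.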
Background: Cyclic AMP is a second messenger, typically raised through Gs and lowered through Gi signalling.

Series [2] can be described thus: Stability testing of peptides in human plasma or blood. The class given is in vitro ADME. Particulars: 37° C. Here is the method:
(§1) Prior to the testing of stability in plasma (or blood) of a peptide batch, its purity (HPLC-UV) was determined.
(§2) Rat and Human plasma: anti-coagulant sodium or lithium heparin.
(§3) Rat and Human blood: anti-coagulant sodium or lithium heparin. • Stock solution: • 100 μM solution of study compound in 50 mM Phosphate buffer pH 7.4. • 950 μL plasma (or blood) was pre-incubated for 5 min at 37° C. 50 μL of compound stock solution was added. Final compound concentration=5 μM. Vortex and transfer 1504, plasma (or blood) into an Eppendorf for each time point. The time points […] were carried out in duplicate for each species.
(§4) After incubation 150 μL, plasma (or blood) was extracted with 600 μL, Acetonitrile containing with 1% TFA. Then, vortexed and centrifuged 10 min at 14600 rpm. 200 μL supernatant was dried under N2. The sample was reconstituted in 200 μL of H2O/CH3CN 98/2+0.1% FA+50 ng/ml Labetalol and analyzed using the analytical system used in solubility and stability studies.
(§5) For determination of the amount of the remaining peptide, the peak areas of the target compound at t0 and each time point […] were compared, resulting in “% remaining peptide”, following the equation: % remaining peptide=[(peak area peptide time)×100]/peak area peptide t0. The stability is expressed as “% remaining peptide”.

A short description of series [3]: Stability testing of peptides in rat plasma or blood. The class given is in vitro ADME. Particulars: 37° C. Here is the method: as §1, §2, §3, §4, §5
A short description of series [4]: Pharmacokinetic (PK) determination after i.v. or s.c. administration to rats. It is filed as in vivo, Sprague Dawley rats. Particulars: Sprague Dawley, Rat PK; for C0 / half-life: iv, 1 mg/kg i.v.; for C0: extrapolated plasma concentration at t=0, read-out: C0; for half-life / Cmax / Tmax / bioavailability: plasma; for half-life: read-out: T½ (converted); for Cmax / Tmax: sc, 3 mg/kg s.c.; for bioavailability: subcutaneous, 3 mg/kg s.c. vs 1 mg/kg i.v., dose-corrected AUC ratio. In outline:
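Sprague Dawley rats received peptide in PBS at 1 mg/kg i.v. or 3 mg/kg s.c., dose corrected for salts, solvent and purity. Plasma analysed by LC/MS after protein precipitation; non-compartmental PK, BLQ values set to zero, F% as dose-corrected s.c./i.v. AUC ratio.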

As usually defined, the EC50 is the midpoint of the concentration-response curve. As a reminder, the Emax is the maximal effect, on the per cent scale that the assay sets. The share remaining is what is left of the initial amount, in per cent. By Cmax is commonly meant the maximum level reached in the sampled fluid or tissue. The term Tmax denotes the time from dosing to the highest level. The term bioavailability denotes the share of a dose that reaches the circulation, judged against a reference dose that is usually intravenous.

*1 amine or outer side, *2 acyl side, *3 side chain or, on linkers, in order; H or OH if unused. Where a SMILES comes first, the peptide text is derived from it. Side-chain parts run from the residue outwards. [ ]: non-standard residue; d: D form. The star is where a group is joined. X4 = CCCCCCCCCCCCCCCC(=O)N[C@@H](CCC(=O)N[C@@H](CCC(=O)NCCCC[C@H](NC(=O)CC[C@H](NC(=O)CC[C@H](NC(=O)CCC(=O)NCCCOCCOCCOCCCNC(=O)CCC(=O)NCCCOCCOCCOCCCNC(=O)CCC(=O)NCCCOCCOCCOCCCN*)C(=O)O)C(=O)O)C(N)=O)C(=O)O)C(=O)O; X1 = CCCCCCCCCCCCCCCCCC(=O)N[C@@H](CCC(=O)N[C@@H](CCC(=O)N[C@@H](CCC(=O)NCCCC[C@H](NC(=O)COCC(=O)NCCCOCCOCCOCCCNC(=O)COCC(=O)NCCCOCCOCCOCCCN*)C(N)=O)C(=O)O)C(=O)O)C(=O)O; γGlu = O=C(O)[C@H](CCC(=O)[*:2])N[*:1]; Stearoyl = CCCCCCCCCCCCCCCCCC(=O)*; αMeK = C[C@](N)(CCCCN)C(=O)O; Nle = CCCC[C@H](N)C(=O)O; AEEA = NCCOCCOCC(=O)O; Aib = CC(C)(N)C(=O)O

As to `CCCCCCCCCCCCCCCCCC(=O)N[C@@H](CCC(=O)N[C@@H](CCC(=O)N[C@@H](CCC(=O)NCCCC[C@H](NC(=O)COCC(=O)NCCCOCCOCCOCCCNC(=O)COCC(=O)NCCCOCCOCCOCCCNC(=O)[C@H](CCCCNC(C)=O)NC(=O)[C@H](CCCCN)NC(=O)[C@H](CCCNC(=N)N)NC(=O)C(C)(C)NC(=O)[C@H](CO)NC(=O)[C@H](Cc1c[nH]c2ccccc12)NC(=O)[C@@H](NC(=O)[C@H](CO)NC(=O)[C@H](CCCC)NC(=O)CNC(=O)[C@H](CCC(=O)O)NC(=O)C(C)(C)NC(=O)C(C)(C)NC(=O)[C@@H](NC(=O)[C@H](CCCCNC(C)=O)NC(=O)[C@H](C)NC(=O)[C@H](CCCNC(=N)N)NC(=O)[C@@H](NC(=O)[C@H](CCCCN)NC(=O)[C@H](CCC(=O)O)NC(=O)[C@H](CCCNC(=N)N)NC(=O)CNC(=O)[C@H](CCC(=O)O)NC(=O)[C@H](CC(C)C)NC(C)=O)C(C)C)[C@@H](C)CC)[C@@H](C)O)C(N)=O)C(=O)O)C(=O)O)C(=O)O` [compound 19] (Ac-LEGREKVRAK(Ac)I[Aib][Aib]EG[Nle]STWS[Aib]RKK(Ac)-X1), the EC50 in series [1] stood at 0.15 nM. In addition, the Emax in series [1] turned out to be 96%. Also, the “Human Plasma stability % remaining T = 0” value in series [2] (human plasma or blood, T = 0 (reference), 5 μM) was determined as 100%. Also, the fraction remaining at 1 h, 5 µM in series [2] (human plasma, 1 h, read-out: Human Plasma stability % remaining 1 h) worked out at 86%; in series [3] (rat plasma, 1 h, read-out: Rat plasma stability % remaining 1 h), 99%. In addition, the amount remaining at 4 h, 5 µM was determined as 90% in series [2] (human plasma, 4 h, read-out: Human Plasma stability % remaining 4 h) and 89% in series [3] (rat plasma, 4 h, read-out: Rat plasma stability % remaining 4 h). The “Rat plasma stability % remaining T = 0” value in series [3] (rat plasma or blood, T = 0 (reference), 5 μM) amounted to 100%.

Turning to `CCCCCCCCCCCCCCCC(=O)N[C@@H](CCC(=O)N[C@@H](CCC(=O)NCCCC[C@H](NC(=O)CC[C@H](NC(=O)CC[C@H](NC(=O)CCC(=O)NCCCOCCOCCOCCCNC(=O)CCC(=O)NCCCOCCOCCOCCCNC(=O)CCC(=O)NCCCOCCOCCOCCCNC(=O)[C@H](CCCCNC(C)=O)NC(=O)[C@H](C)NC(=O)[C@H](CCCNC(=N)N)NC(=O)[C@](C)(CCCCN)NC(=O)[C@H](CO)NC(=O)[C@H](Cc1ccccc1)NC(=O)[C@@H](NC(=O)[C@H](CO)NC(=O)[C@H](CCCC)NC(=O)CNC(=O)[C@H](CCC(=O)O)NC(=O)C(C)(C)NC(=O)C(C)(C)NC(=O)[C@@H](NC(=O)[C@H](CCCCNC(C)=O)NC(=O)[C@H](C)NC(=O)[C@H](CCCNC(=N)N)NC(=O)[C@@H](NC(=O)[C@H](CCCCN)NC(=O)[C@H](CCC(=O)O)NC(=O)[C@H](CCCNC(=N)N)NC(=O)CNC(=O)[C@H](CCC(=O)O)NC(=O)[C@H](CC(C)C)NC(C)=O)C(C)C)[C@@H](C)CC)[C@@H](C)O)C(=O)O)C(=O)O)C(N)=O)C(=O)O)C(=O)O` [compound 169] (Ac-LEGREKVRAK(Ac)I[Aib][Aib]EG[Nle]STFS[αMeK]RAK(Ac)-X4), in series [1], the EC50 worked out at 0.01 nM and the Emax was 89%. Also, in series [4], the C0 was 3040 nM, the half-life is 5.8 h, the peak level (Cmax) was 1890 nM and the time to peak (Tmax) was determined as 6 h. In series [4], the bioavailability is 69%.

Turning to `CCCCCCCCCCCCCCCCCC(=O)N[C@@H](CCC(=O)NCCOCCOCC(=O)N[C@@H](CCC(=O)N[C@@H](CCC(=O)NCCOCCOCC(=O)NCCOCCOCC(=O)NCCCC[C@H](NC(=O)[C@H](CCCCN)NC(=O)[C@H](CCCNC(=N)N)NC(=O)C(C)(C)NC(=O)[C@H](CO)NC(=O)[C@H](Cc1c[nH]c2ccccc12)NC(=O)[C@@H](NC(=O)[C@H](CO)NC(=O)[C@H](CCCC)NC(=O)CNC(=O)[C@H](CCC(=O)O)NC(=O)C(C)(C)NC(=O)C(C)(C)NC(=O)[C@@H](NC(=O)[C@H](CCC(N)=O)NC(=O)[C@H](C)NC(=O)[C@H](CCCNC(=N)N)NC(=O)[C@@H](NC(=O)[C@H](CCCCN)NC(=O)[C@H](CCC(=O)O)NC(=O)[C@H](CCCNC(=N)N)NC(=O)CNC(=O)[C@H](CCC(=O)O)NC(=O)[C@H](CC(C)C)NC(C)=O)C(C)C)[C@@H](C)CC)[C@@H](C)O)C(N)=O)C(=O)O)C(=O)O)C(=O)O` [compound 100] (Ac-LEGREKVRAQI[Aib][Aib]EG[Nle]STWS[Aib]RKK([AEEA-AEEA-γGlu-γGlu-AEEA-γGlu-Stearoyl])-NH2), in series [1], the EC50 turned out to be 0.16 nM and the Emax is 90%. Also, in series [4], the C0 was 3100 nM, the half-life is 2.8 h, the Cmax stood at 2360 nM and the Tmax was 7 h. The bioavailability in series [4] was 41%.

In the case of `CCCCCCCCCCCCCCCCCC(=O)N[C@@H](CCC(=O)N[C@@H](CCC(=O)N[C@@H](CCC(=O)NCCOCCOCC(=O)NCCOCCOCC(=O)NCCOCCOCC(=O)NCCCC[C@H](NC(=O)[C@H](CCCCNC(C)=O)NC(=O)[C@H](CCCCN)NC(=O)[C@H](CCCNC(=N)N)NC(=O)C(C)(C)NC(=O)[C@H](CO)NC(=O)[C@H](Cc1ccccc1)NC(=O)[C@@H](NC(=O)[C@H](CO)NC(=O)[C@H](CCCC)NC(=O)CNC(=O)[C@H](CCC(=O)O)NC(=O)C(C)(C)NC(=O)C(C)(C)NC(=O)[C@@H](NC(=O)[C@H](CCCCNC(C)=O)NC(=O)[C@H](C)NC(=O)[C@H](CCCNC(=N)N)NC(=O)[C@@H](NC(=O)[C@H](CCCCN)NC(=O)[C@H](CCC(=O)O)NC(=O)[C@H](CCCNC(=N)N)NC(=O)CNC(=O)[C@H](CCC(=O)O)NC(=O)[C@H](CC(C)C)NC(C)=O)C(C)C)[C@@H](C)CC)[C@@H](C)O)C(N)=O)C(=O)O)C(=O)O)C(=O)O` [compound 112] (Ac-LEGREKVRAK(Ac)I[Aib][Aib]EG[Nle]STFS[Aib]RKK(Ac)K([AEEA-AEEA-AEEA-γGlu-γGlu-γGlu-Stearoyl])-NH2), in series [1], the EC50 came to 0.32 nM and the Emax came to 88%. Also, in series [4], the C0 was 3500 nM, the half-life was 3.3 h, the Cmax worked out at 2200 nM and the Tmax is 8 h. Also, in series [4], the bioavailability was found to be 63%.
